{"source": "paper PMC6748410", "about": "“A phase 2 study of an oral mTORC1/mTORC2 kinase inhibitor (CC-223) for non-pancreatic neuroendocrine tumors with or without carcinoid symptoms” (PLoS ONE, 2019)", "key": {"pAKT (mTORC2)": {"test_system": "pAKT (mTORC2)", "experiment": "Stimulated blood biomarker assay in monocytes (CD14+) for pAKT (mTORC2 inhibition)", "type": "in vivo, human", "conditions": "for pAKT median inhibition from baseline: 30 mg; for Blood pAKT median inhibition: 45 mg", "method": "Central laboratories conducted serial stimulated blood biomarker assays in monocytes (CD14+) for p4E-BP1 and pPKB (also known as pAKT) for assessment of mTORC1 and mTORC2 inhibition, respectively. Monthly changes from baseline for chromogranin A (CgA), and for other serum hormones if elevated, were assayed locally."}, "[1]": {"test_system": "well-differentiated NET of non-pancreatic gastrointestinal or unknown origin", "experiment": "Tumor response by investigator (RECIST version 1.1), PFS and OS", "type": "in vivo, human", "from_the_text": "Tumors were restaged by the principal investigator at each site using computed tomography (CT), positron emission tomography (PET)-CT, or magnetic resonance imaging scans after every 2 cycles through cycle 6, and every 3 cycles thereafter, using Response Evaluation Criteria In Solid Tumors (RECIST) version 1.1 criteria for response.\nThis phase 1/2 study was not powered for inferential statistics and mostly descriptive statistics were used. All patients dosed with CC-223 were included in the safety analysis. The efficacy analysis included all patients completing at least one cycle of drug who had both baseline and one post-baseline tumor efficacy assessment, unless otherwise specified. Categorical baseline variables including tumor type-specific characteristics were summarized using frequency counts and percentage. Continuous demographic and baseline characteristic variables were summarized by descriptive statistics. A Wilcoxon signed rank test was used to analyse change from baseline in serum hormone levels at selected scheduled visits.\nBest overall tumor response by investigator assessment was summarized using frequency tabulation. Waterfall plots were used to show best percentage change from baseline in the sum of length (longest diameter) of target lesions.\nRelationship between PFS and NET-specific assessments such as serum hormone levels and carcinoid symptoms were investigated. The Kaplan-Meier estimate of median PFS with its two-sided 95% confidence interval [CI] was provided for each baseline category of the selected biomarkers. Kaplan-Meier plots of PFS were created by category. The raw P value of the log rank test comparing survival distribution of PFS between categories was also provided."}, "[2]": {"test_system": "mTORC1 and mTORC2 biomarkers", "experiment": "Target biomarker inhibition at 15 mg dose level (predicted, not tested)", "type": "in vivo, human", "conditions": "15 mg dose level"}, "[3]": {"test_system": "human carcinoid xenografts that secrete serotonin", "set-up": "method as in PMID 28864682", "conditions": "mice bearing human carcinoid xenografts; cited from earlier work"}, "[4]": {"conditions": "Rat; trial protocol; cited from earlier work"}, "[5]": {"conditions": "Dog; trial protocol; cited from earlier work"}}, "note": "Several values for one entry are separate records, joined by “and”; a condition that tells them apart may be missing. Identical values can stand only once.", "data": [{"molecule": "CO[C@H]1CC[C@H](N2C(=O)CNc3ncc(-c4ccc(C(C)(C)O)nc4)nc32)CC1", "note": "[CC-223]", "values": [{"measurement": "pAKT median inhibition from baseline", "setting": "pAKT (mTORC2); after the first dose", "value": 59, "unit": "%"}, {"measurement": "pAKT median inhibition from baseline", "setting": "pAKT (mTORC2); day 15 after multiple doses", "value": 79, "unit": "%"}, {"measurement": "Blood pAKT median inhibition", "setting": "pAKT (mTORC2); 1.5 hours after a single dose (day 1)", "value": 83, "unit": "%"}, {"measurement": "Blood pAKT median inhibition", "setting": "pAKT (mTORC2); after multiple doses (day 15)", "value": 76, "unit": "%"}, {"measurement": "pAKT median biomarker inhibition relative to baseline", "setting": "pAKT (mTORC2); across both dose level cohorts (45 mg or 30 mg), 1.5 hours after multiple dosing on day 15", "value": "> 70", "unit": "%"}, {"measurement": "Progressive disease (PD)", "setting": "[1]; 1 of 41 evaluable patients, investigator assessment", "value": 2.4, "unit": "%"}, {"measurement": "Partial response (PR)", "setting": "[1]; 3 of 41 evaluable patients, investigator assessment", "value": "7% and 7.3%"}, {"measurement": "Objective response rate (CR+PR)", "setting": "[1]; 41 evaluable patients, 95% CI 1.5–19.9%", "value": 7.3, "unit": "%"}, {"measurement": "Disease control rate (CR+PR+SD)", "setting": "[1]; 41 evaluable patients, 95% CI 76.9–97.3%", "value": "90% and 90.2%"}, {"measurement": "Complete response (CR)", "setting": "[1]; 41 evaluable patients, investigator assessment", "value": "no patient"}, {"measurement": "Patients with tumor shrinkage of any magnitude relative to baseline", "setting": "[1]; 95% CI 57.1–85.8%", "value": 73.2, "unit": "%"}, {"measurement": "Median PFS in patients without carcinoid symptom improvement", "setting": "[1]; ad hoc exploratory analysis, 95% CI 35.6–104.4", "value": "48.1 weeks and 48 weeks"}, {"measurement": "Median PFS in patients with carcinoid symptom improvement", "setting": "[1]; ad hoc exploratory analysis, 95% CI 72.6–not estimable", "value": "108.4 weeks and 108 weeks"}, {"measurement": "PFS rate", "setting": "[1]; at 6 months", "value": 85, "unit": "%"}, {"measurement": "PFS rate", "setting": "[1]; at 10 months", "value": 64, "unit": "%"}, {"measurement": "OS rate", "setting": "[1]; at 48 weeks", "value": 0.97}, {"measurement": "Duration of SD (min–max)", "setting": "[1]; in vivo", "value": "50 to 1519", "unit": "days"}, {"measurement": "Median duration of SD", "setting": "[1]; in vivo", "value": 297, "unit": "days"}, {"measurement": "Patients with duration of SD longer than a year", "setting": "[1]; in vivo", "value": 17, "unit": "patients"}, {"measurement": "Median OS", "setting": "[1]; treated population", "value": "not assessable"}, {"measurement": "Median progression-free survival (PFS)", "setting": "[1]; treated population, 95% CI 10.4–28.5 months", "value": 19.5, "unit": "months"}, {"measurement": "Target biomarker inhibition", "setting": "[2]", "value": "modest"}, {"measurement": "Volume of tumors that progressed on rapamycin, after treatment", "setting": "[3]", "value": "remained stable or decreased in volume from baseline"}, {"measurement": "STD10 (severely toxic dose in 10% of the animals tested)", "setting": "[4]", "value": 10, "unit": "mg/kg"}, {"measurement": "HNSTD (highest non-severely toxic dose)", "setting": "[5]", "value": 1.5, "unit": "mg/kg"}]}]}
